Assay results from PMC4324634, “Bioprospecting the American Alligator (Alligator mississippiensis) Host Defense Peptidome” (PLoS ONE, 2015).
Read-outs that look alike come from different tables or passages of the source. Where no end group is shown, it is not given here.

Legend:
[1] = system: Bacillus cereus (ATCC 11778)
Protocol: (§1) The third step in the CAMP-discovery process is the evaluation of the antimicrobial effectiveness of the newly identified peptides. The eight synthetic peptides were tested against a panel of Gram-positive and Gram-negative bacteria. These bacteria include Bacillus cereus, Staphylococcus aureus, Escherichia coli, and Pseudomonas aeruginosa. […] When incubated with live metabolically-active cells, the non-fluorescent blue dye resazurin is converted to the highly fluorescent pink resorufin, as a result of reduction by the cells. While bacteria can reduce resazurin via multiple metabolic processes, the rate of conversion and the corresponding increase in fluorescence are directly proportional to the number of living cells in the sample [19–21, 25]. Thus, fluorometric detection of the rate of resazurin conversion to resorufin at 530ex/590em allows for quantification of bacterial survival following exposure to antibacterial compounds, such as CAMPs.
(§2) Escherichia coli (ATCC 25922), Bacillus cereus (ATCC 11778), Pseudomonas aeruginosa (ATCC 9027), and Staphylococcus aureus (ATCC 25923) used in these studies were purchased from the American Type Culture Collection (Manassas, VA). Bacteria were grown following ATCC recommended protocols for each strain and frozen aliquots were prepared in 20% glycerol and stored at -80°C for further use.
(§3) Frozen enumerated bacterial aliquots were thawed on ice and mixed. For each strain, bacteria are diluted to 2 × 10^6 CFU/mL in sterile 10 mM sodium phosphate (pH 7.4) and added in 50 µL aliquots to the wells of a 96-well black microtiter plate (Greiner Bio-One 655201) containing 50 µL volumes of serially diluted CAMP, dissolved in the same phosphate buffer. Control wells contain bacteria with no peptide. The microtiter plate was incubated for 3 hours at 30°C (B. cereus) or 37°C for other strains. After three hours, 100 µL of PBS solution with dissolved resazurin and MHB was added to each well. The amount of resazurin and MHB that was added is bacterial strain dependent, with the final resazurin (µM)/ MHB (wt/vol) concentrations being 100 µM/ 0.2% (wt/vol) for E. coli, 12.5 µM/ 0.05% (wt/vol) for B. cereus, 25 µM/ 2.2% (wt/vol) for P. aerugoinsa, and 50 µM/ 2.2% (wt/vol) for S. aureus. The metabolic conversion of resazurin to resorufin is bacterial strain dependent and requires concentrations optimized for each species to achieve a high-throughput assessment. Following addition of resazurin/MHB buffer, the plate was immediately placed in either a SpectraMax Gemini EM plate-reading fluorimeter (E. coli and B. cereus) or a TeCan Safire 2 fluorimeter (S. aureus and P. aeruginosa) for incubation overnight at either 30°C (B. cereus) or 37°C (other strains) while monitoring fluorescence for each well.
(§4) Fluorescence data was collected from each well during the monitoring period using equations compiled by microplate data software (SoftMax Pro 4.5 or Magellen 6). Onset time of half maximal fluorescence (T0.5) was used for quantifying bacterial concentrations. Standard curves were generated in preliminary experiments using serially diluted bacterial suspensions (~10^6 CFU/mL- 10^3 CFU/mL) without CAMPs. […] Correlating bacterial CFU values for wells containing peptide with control wells containing no CAMPs it is possible to determine bacterial survival for wells containing CAMPs.

[2] = system: Escherichia coli (ATCC 25922)
Protocol: as §1, §2, §3, §4

[3] = system: Pseudomonas aeruginosa (ATCC 9027)
Protocol: as §1, §2, §3, §4

[4] = system: Staphylococcus aureus (ATCC 25923)
Protocol: as §1, §2, §3, §4

EC50 ([1]; ATCC 11778, 3 h, pH 7.4) [nM]	EC50 ([2]; ATCC 25922, 3 h, pH 7.4) [nM]	EC50 ([3]; ATCC 9027, 3 h, pH 7.4) [nM]	EC50 ([4]; ATCC 25923, 3 h, pH 7.4) [nM]	Compound	EC50 ([1]; read-out: B. cereus EC50, B. cereus ATCC 11778, 2 × 10^6 CFU/mL stock mixed 1:1 with peptide in 10 mM sodium phosphate pH 7.4, 3 h at 30°C, resazurin fluorescence read-out (T0.5), triplicate, variable-slope sigmoidal fit) [nM]	EC50 ([2]; read-out: E. coli EC50, E. coli ATCC 25922, 2 × 10^6 CFU/mL stock mixed 1:1 with peptide in 10 mM sodium phosphate pH 7.4, 3 h at 37°C, resazurin fluorescence read-out (T0.5), triplicate, variable-slope sigmoidal fit) [nM]	EC50 ([3]; read-out: P. aeruginosa EC50, P. aeruginosa ATCC 9027, 2 × 10^6 CFU/mL stock mixed 1:1 with peptide in 10 mM sodium phosphate pH 7.4, 3 h at 37°C, resazurin fluorescence read-out (T0.5), triplicate, variable-slope sigmoidal fit) [nM]	EC50 ([4]; read-out: S. aureus EC50, S. aureus ATCC 25923, 2 × 10^6 CFU/mL stock mixed 1:1 with peptide in 10 mM sodium phosphate pH 7.4, 3 h at 37°C, resazurin fluorescence read-out (T0.5), triplicate, variable-slope sigmoidal fit) [nM]
				CC[C@H](C)[C@H](NC(=O)[C@H](CCCCN)NC(=O)[C@H](CCC(=O)O)NC(=O)[C@H](CCCCN)NC(=O)[C@H](CO)NC(=O)[C@H](CCCCN)NC(=O)[C@H](CCCNC(=N)N)NC(=O)[C@H](Cc1ccccc1)NC(=O)[C@H](Cc1ccccc1)NC(=O)[C@H](CC(=O)O)NC(=O)CNC(=O)[C@H](CC(C)C)NC(=O)[C@@H](N)CC(C)C)C(=O)NCC(=O)N[C@@H](CCCCN)C(=O)N[C@@H](CCC(=O)O)C(=O)N[C@@H](Cc1ccccc1)C(=O)N[C@@H](CCCCN)C(=O)N[C@@H](CCCNC(=N)N)C(=O)N[C@H](C(=O)N[C@H](C(=O)N[C@@H](CCC(N)=O)C(=O)N[C@@H](CCCNC(=N)N)C(=O)N[C@H](C(=O)N[C@@H](CCCCN)C(=O)N[C@@H](CC(=O)O)C(=O)N[C@@H](Cc1ccccc1)C(=O)N[C@@H](CC(C)C)C(=O)N[C@@H](CCCNC(=N)N)C(=O)N[C@@H](CC(N)=O)C(=O)N[C@@H](CC(C)C)C(=O)N[C@H](C(=O)N1CCC[C@H]1C(=O)N[C@@H](CCCNC(=N)N)C(=O)N[C@H](C(=O)N[C@@H](CCC(=O)O)C(=O)N[C@@H](CO)C(=O)O)[C@@H](C)O)C(C)C)[C@@H](C)CC)C(C)C)[C@@H](C)CC [LL-37, reference compound]	28.7	8.21	525	552
245	192	1410	9660	FSTKTRNWFSEHFKKVKEKLKDTFA [APOC1_64–88]				
18700	245	11100	31800	KKTSMKIIPFTRL [FGG401–413]				
210	151	948	7080	KTRNWFSEHFKKVKEKLKDTFA [APOC1_67–88]				
			101000	PPGASPRKKPRKQ [ASAP130LP]				
9350	332	7020	2840	YSLKKTSMKIIPFTRL [FGG398–413]				

Compound	EC50 ([1]; ATCC 11778, 3 h, pH 7.4) [nM]	EC50 ([2]; ATCC 25922, 3 h, pH 7.4) [nM]	EC50 ([3]; ATCC 9027, 3 h, pH 7.4) [nM]	EC50 ([4]; ATCC 25923, 3 h, pH 7.4) [nM]	EC50 ([1]; read-out: B. cereus EC50, B. cereus ATCC 11778, 2 × 10^6 CFU/mL stock mixed 1:1 with peptide in 10 mM sodium phosphate pH 7.4, 3 h at 30°C, resazurin fluorescence read-out (T0.5), triplicate, variable-slope sigmoidal fit) [nM]	EC50 ([2]; read-out: E. coli EC50, E. coli ATCC 25922, 2 × 10^6 CFU/mL stock mixed 1:1 with peptide in 10 mM sodium phosphate pH 7.4, 3 h at 37°C, resazurin fluorescence read-out (T0.5), triplicate, variable-slope sigmoidal fit) [nM]	EC50 ([3]; read-out: P. aeruginosa EC50, P. aeruginosa ATCC 9027, 2 × 10^6 CFU/mL stock mixed 1:1 with peptide in 10 mM sodium phosphate pH 7.4, 3 h at 37°C, resazurin fluorescence read-out (T0.5), triplicate, variable-slope sigmoidal fit) [nM]	EC50 ([4]; read-out: S. aureus EC50, S. aureus ATCC 25923, 2 × 10^6 CFU/mL stock mixed 1:1 with peptide in 10 mM sodium phosphate pH 7.4, 3 h at 37°C, resazurin fluorescence read-out (T0.5), triplicate, variable-slope sigmoidal fit) [nM]
VERIPLVRFKSIKKQLHERGDL [NOTS17–38]				198000				
